Measurements: patent US11802113B2, “Substituted pyrazole compounds, compositions containing same, and use thereof” (Shenzhen TargetRx, Inc., priority 2019, dated 2023)

What was measured:
[1] = Metabolic stability evaluation, human liver microsome; format: in vitro ADME; details: liver microsomes, pH 7.4, human liver microsome 0.5 mg/mL, compound 1 μM, NADPH, 37° C.; for microsomal CLint at 1 μM: read-out: HLM CL; for half-life at 1 μM: read-out: HLM T1/2
Method: (§1) (4) Metabolic Stability Evaluation
(§2) Microsome experiment: human liver microsome: 0.5 mg/mL, Xenotech; rat liver microsome: 0.5 mg/mL, Xenotech; coenzyme (NADPH/NADH): 1 mM, Sigma Life Science; magnesium chloride: 5 mM, 100 mM phosphate buffer (pH 7.4).
(§3) Preparation of stock solution: a certain amount of the example compound powder and control compound powder were accurately weighed, and respectively dissolved to 5 mM with DMSO.
(§4) Preparation of phosphate buffer (100 mM, pH7.4): 150 mL of 0.5M potassium dihydrogen phosphate and 700 mL of 0.5M dipotassium hydrogen phosphate prepared beforehand were mixed, with pH of the mixture adjusted to 7.4 with 0.5M dipotassium hydrogen phosphate solution. Before use, the mixture was diluted by 5 folds with ultrapure water and magnesium chloride was added to obtain the phosphate buffer (100 mM), which contains 100 mM potassium phosphate, 3.3 mM magnesium chloride, and has pH 7.4.
(§5) NADPH regeneration system solution (containing 6.5 mM NADP, 16.5 mM G-6-P, 3 U/mL G-6-P D, 3.3 mM magnesium chloride) was prepared, and placed on wet ice before use.
(§6) Preparation of stop solution: a solution of 50 ng/mL propranolol hydrochloride and 200 ng/mL tolbutamide (internal standard) in acetonitrile. 25057.5 μL of phosphate buffer (pH 7.4) was taken into a 50 mL centrifuge tube, added with 812.5 μL of human liver microsome, and mixed well to obtain a liver microsome diluent with a protein concentration of 0.625 mg/mL. 25057.5 μL of phosphate buffer (pH 7.4) was taken into a 50 mL centrifuge tube, added with 812.5 μL of SD rat liver microsome, and mixed well to obtain a liver microsome diluent with a protein concentration of 0.625 mg/mL.
(§7) Incubation of the samples: the stock solutions of the corresponding compounds were respectively diluted to 0.25 mM with an aqueous solution containing 70% acetonitrile to obtain working solutions for later use. 398 μL of human liver microsome and rat liver microsome diluents were respectively taken and added to a 96-well incubation plate (N=2), added with 2 μL of 0.25 mM working solution respectively, and mixed well.
Determination of metabolic stability: 300 μL of pre-cooled stop solution was added to each well of a 96-well deep-well plate, and the plate was placed on ice as a stop plate. The 96-well incubation plate and the NADPH regeneration system were placed in a 37° C. water bath, shaken at 100 rpm, and pre-incubated for 5 minutes. 80 μL of incubation solution was taken out of each well of the incubation plate and added to the stop plate, mixed well, and supplemented with 20 μL of NADPH regeneration system solution to obtain the 0 min sample. Then 80 μL of NADPH regeneration system solution was added to each well of the incubation plate to initiate the reaction and start timing. The reaction concentration of the corresponding compound was 1 μM, and the protein concentration was 0.5 mg/mL. At 10, 30, and 90 minutes of reaction, 100 μL of the reaction solution was taken and added to the stop plate, and vortexed for 3 minutes to stop the reaction. The stop plate was centrifuged at 5000×g for 10 min at 4° C. 100 μL of supernatant was taken to a 96-well plate pre-added with 100 μL of distilled water, mixed well, and subjected to sample analysis by LC-MS/MS.
Data analysis: the peak areas of the corresponding compound and internal standard were detected through the LC-MS/MS system, and the ratio of the peak area of the compound to the internal standard was calculated. The natural logarithm of the remaining percentage of the compound was plotted against time to measure the slope and calculate t1/2 and CLint according to the following equations, where V/M is equal to 1/protein concentration.
The compounds of the present invention and the corresponding non-deuterated compounds were simultaneously tested for comparison and evaluated for the metabolic stability in human and rat liver microsomes. The non-deuterated compound Darolutamide was used as the control.

[2] = Metabolic stability evaluation, rat liver microsome; format: in vitro ADME; details: SD, liver microsomes, pH 7.4, rat liver microsome 0.5 mg/mL, compound 1 μM, NADPH, 37° C.; for microsomal CLint at 1 μM: read-out: RLM CL; for half-life at 1 μM: read-out: RLM T1/2
Method: as §1, §2, §3, §4, §5, §6, §7
Determination of metabolic stability: 300 μL of pre-cooled stop solution was added to each well of a 96-well deep-well plate, and the plate was placed on ice as a stop plate. […]
Data analysis: the peak areas of the corresponding compound and internal standard were detected through the LC-MS/MS system, and the ratio of the peak area of the compound to the internal standard was calculated. […]
The compounds of the present invention and the corresponding non-deuterated compounds were simultaneously tested for comparison and evaluated for the metabolic stability in human and rat liver microsomes. […]

Row | microsomal CLint at 1 μM [1] | half-life at 1 μM [1] | microsomal CLint at 1 μM [2] | half-life at 1 μM [2] | SMILES
1 | 8.5 µL/min/mg | 2.72 h | 12.2 µL/min/mg | 1.9 h | CC(O)c1cc(C(=O)N[C@@H](C)Cn2ccc(-c3ccc(C#N)c(Cl)c3)n2)[nH]n1 (stereo partly drawn) [Darolutamide, N—((S)-1-(3-(3-chloro-4-cyanophenyl)-1H-pyrazol-1-yl)-prop-2-yl)-5-(1-hydroxyethyl)-1H-pyrazole-3-carboxamide, reference compound]
2 | 6.2 µL/min/mg | 3.7 h | – | – | [2H]C(C)(O)c1cc(C(=O)N[C@@H](C)Cn2ccc(-c3ccc(C#N)c(Cl)c3)n2)n[nH]1 (stereo partly drawn) [Example 1, N—((S)-1-(3-(3-chloro-4-cyanophenyl)-1H-pyrazol-1-yl)prop-2-yl)-5-(1-hydroxylethyl-1-d)-1H-pyrazole-3-carboxamide]
3 | 4.4 µL/min/mg | 5.29 h | – | – | [2H]C(C)(O)c1cc(C(=O)N[C@@H](C([2H])([2H])[2H])C([2H])([2H])n2ccc(-c3ccc(C#N)c(Cl)c3)n2)n[nH]1 (stereo partly drawn) [Example 10, N—((S)-1-(3-(3-chloro-4-cyanophenyl)-1H-pyrazol-1-yl)prop-2-yl-1,1,3,3,3-d5)-5-(1-hydroxyethyl-1-d)-1H-pyrazole-3-carboxamide]
4 | 7.3 µL/min/mg | 3.17 h | – | – | [2H][C@](C)(Cn1ccc(-c2ccc(C#N)c(Cl)c2)n1)NC(=O)c1cc(C(C)O)[nH]n1 (stereo partly drawn) [Example 8, N—((S)-1-(3-(3-chloro-4-cyanophenyl)-1H-pyrazol-1-yl)prop-2-yl-2-d)-5-(1-hydroxyethyl)-1H-pyrazole-3-carboxamide]
5 | 4.3 µL/min/mg | 5.36 h | – | – | [2H]C(C)(O)c1cc(C(=O)N[C@@H](C)C([2H])([2H])n2ccc(-c3ccc(C#N)c(Cl)c3)n2)n[nH]1 (stereo partly drawn) [Example 5, N—((S)-1-(3-(3-chloro-4-cyanophenyl)-1H-pyrazol-1-yl)prop-2-yl-1,1-d2)-5-(1-hydroxyethyl-1-d)-1H-pyrazole-3-carboxamide]
6 | 9.1 µL/min/mg | 2.55 h | – | – | [2H]C([2H])([2H])C(O)c1cc(C(=O)N[C@@H](C)Cn2ccc(-c3ccc(C#N)c(Cl)c3)n2)n[nH]1 (stereo partly drawn) [Example 2, N—((S)-1-(3-(3-chloro-4-cyanophenyl)-1H-pyrazol-1-yl)prop-2-yl)-5-(1-hydroxylethyl-2,2,2-d3)-1H-pyrazole-3-carboxamide]
7 | 8.1 µL/min/mg | 2.85 h | – | – | [2H]C([2H])([2H])[C@H](NC(=O)c1cc(C(C)O)[nH]n1)C([2H])([2H])n1ccc(-c2ccc(C#N)c(Cl)c2)n1 (stereo partly drawn) [Example 9, N—((S)-1-(3-(3-chloro-4-cyanophenyl)-1H-pyrazol-1-yl)prop-2-yl-1,1,3,3,3-d5)-5-(1-hydroxyethyl)-1H-pyrazole-3-carboxamide]
8 | 8.5 µL/min/mg | 2.7 h | – | – | [2H]C([2H])([C@H](C)NC(=O)c1cc(C(C)O)[nH]n1)n1ccc(-c2ccc(C#N)c(Cl)c2)n1 (stereo partly drawn) [Example 4, N—((S)-1-(3-(3-chloro-4-cyanophenyl)-1H-pyrazol-1-yl)prop-2-yl-1,1-d2)-5-(1-hydroxyethyl)-1H-pyrazole-3-carboxamide]
9 | 4 µL/min/mg | 5.83 h | – | – | [2H]C([2H])([2H])C([2H])(O)c1cc(C(=O)N[C@@H](C)Cn2ccc(-c3ccc(C#N)c(Cl)c3)n2)n[nH]1 (stereo partly drawn) [Example 3, N—((S)-1-(3-(3-chloro-4-cyanophenyl)-1H-pyrazol-1-yl)prop-2-yl)-5-(1-hydroxylethyl-1,2,2,2-d4)-1H-pyrazole-3-carboxamide]
10 | 6.4 µL/min/mg | 3.62 h | – | – | [2H]C([2H])([2H])C(O)c1cc(C(=O)N[C@@H](C)C([2H])([2H])n2ccc(-c3ccc(C#N)c(Cl)c3)n2)n[nH]1 (stereo partly drawn) [Example 6, N—((S)-1-(3-(3-chloro-4-cyanophenyl)-1H-pyrazol-1-yl)prop-2-yl-1,1-d2)-5-(1-hydroxyethyl-2,2,2-d3)-1H-pyrazole-3-carboxamide]
11 | 6.9 µL/min/mg | 3.36 h | 7.1 µL/min/mg | 3.25 h | [2H]C([2H])([C@H](C)NC(=O)c1cc(C([2H])(O)C([2H])([2H])[2H])[nH]n1)n1ccc(-c2ccc(C#N)c(Cl)c2)n1 (stereo partly drawn) [Example 7, N—((S)-1-(3-(3-chloro-4-cyanophenyl)-1H-pyrazol-1-yl)prop-2-yl-1,1-d2)-5-(1-hydroxyethyl-1,2,2,2-d4)-1H-pyrazole-3-carboxamide]
